Experimental data reported in patent US8604206B2, “Compositions for preventing and/or treating degenerative disorders of the central nervous system” (Amicus Therapeutics, Inc., priority 2009, dated 2013).
Read-outs that look alike come from different tables or passages of the source.

How the values were obtained:
[1] = target: recombinant human GCase (rhGCase; Cerezyme®) (Homo sapiens (Human), UniProt P04062, R534H); test: In vitro enzyme inhibition assay (4-MU-β-D-Glc substrate), inhibition constants; assay type: biochemical
Procedure: The binding affinity (defined here by Ki binding constant) of GCase for novel compounds of the present invention were empirically determined using enzyme inhibition assays. In brief, the enzyme inhibition assays used monitored the ability of a test compound to bind and prevent the hydrolysis of a fluorogenic substrate in a concentration-dependent mariner. Specifically, the enzyme activity of recombinant human GCase (rhGCase; Cerezyme®, Genzyme Corp.) was measured using the 4-methylumbelliferyl-β-D-glucopyranoside (4-MU-β-D-Glc) fluorogenic substrate in the absence or in the presence of varying amounts of each test compound. […] The enzyme inhibition assays were performed at both pH 7.0 (endoplasmic reticulum pH) and at pH 5.2 (lysosomal pH) to gain insight into the binding affinity (i.e., potency) of compounds for GCase in the endoplasmic reticulum and lysososome.
Various concentrations of test compounds were prepared in buffer “M” consisting of 50 mM sodium phosphate buffer with 0.25% sodium taurocholate at pH 7.0 and pH 5.2. Enzyme (Cerezyme®, a recombinant form of the human enzyme β-glucocerebrosidase) was also diluted in the same buffer “M” at pH 7.0 and pH 5.2. […] Five microliters of diluted enzyme was added to 15 μl of the various inhibitor concentrations or buffer “M” alone and incubated at 37° C. for 1 hour with 50 μl of the substrate preparation to assess β-glucosidase activity at pH 7.0 and pH 5.2. […] Fluorescence was measured on a plate reader for 1 sec/well using 355 nm excitation and 460 nm emission.

Rat pharmacokinetics = assay type: in vivo; conditions: male, Sprague-Dawley, plasma; for Cmax: read-out: Cmax
Procedure: Pharmacokinetic (PK) data was obtained in rats to assess the bioavailability of test compound. In particular, the following PK parameters were calculated: bioavailability as measured by area under the Concentration/Time curve (AUC), fraction of dose available (% F; further defined below), clearance (CL), volume of distribution (Vd), and half-life (t½). […] Three rats were used per dosing group. Blood was collected over a 24-hr period. The time points for blood collection after intravenous administration were: 0, 2.5, 5, 10, 15, 30, 45 min, 1, 2, 4, 8, 12, and 24 hrs; time points for blood collection after p.o. administrations were: 0, 5, 15, 30, 45 min, 1, 2, 3, 4, 8, 12, and 24 hrs. Plasma samples were analyzed for compound levels by LC-MS/MS at PPD. Raw data was analyzed by non-compartmental analysis in Win-nonLin to calculate VD, % F, CL, and t1/2.

[2] = pH 5.2, Cheng-Prusoff from IC50, read-out: Ki (μM) pH 5.2
[3] = pH 5.2, read-out: IC50 (μM) pH 5.2
[4] = pH 5.2, repeated in Table 3A, read-out: Ki pH 5.2
[5] = pH 5.2, repeated in Table 3B, read-out: Ki pH 5.2
[6] = pH 7.0, Cheng-Prusoff from IC50, read-out: Ki (μM) pH 7.0
[7] = pH 7.0, read-out: IC50 (μM) pH 7.0
[8] = IV, 3 mg/kg free base, AUC0-12 hr, read-out: AUClast (hr*ng/ml), AUC0-12 hr
[9] = IV, 3 mg/kg free base, read-out: t1/2 (converted)
[10] = PO, 10 mg/kg free base, read-out: % F
[11] = PO, 10 mg/kg free base, read-out: t1/2 (converted)
[12] = PO, 30 mg/kg free base, AUC0-24 hr, read-out: AUClast (hr*ng/ml), AUC0-24 hr
[13] = PO, 30 mg/kg free base, read-out: % F
[14] = PO, 30 mg/kg free base, read-out: t1/2 (converted)
[15] = PO, 100 mg/kg free base, AUC0-24 hr, read-out: AUClast (hr*ng/ml), AUC0-24 hr
[16] = PO, 100 mg/kg free base, read-out: % F
[17] = PO, 100 mg/kg free base, read-out: t1/2 (converted)
[18] = intravenous, oral, summary of Tables 4A-D, read-out: half-life
[19] = po, summary of Tables 4A-D, read-out: oral bioavailability

Sequence of recombinant human GCase (rhGCase; Cerezyme®) (P04062 40-536 R534H limits assumed): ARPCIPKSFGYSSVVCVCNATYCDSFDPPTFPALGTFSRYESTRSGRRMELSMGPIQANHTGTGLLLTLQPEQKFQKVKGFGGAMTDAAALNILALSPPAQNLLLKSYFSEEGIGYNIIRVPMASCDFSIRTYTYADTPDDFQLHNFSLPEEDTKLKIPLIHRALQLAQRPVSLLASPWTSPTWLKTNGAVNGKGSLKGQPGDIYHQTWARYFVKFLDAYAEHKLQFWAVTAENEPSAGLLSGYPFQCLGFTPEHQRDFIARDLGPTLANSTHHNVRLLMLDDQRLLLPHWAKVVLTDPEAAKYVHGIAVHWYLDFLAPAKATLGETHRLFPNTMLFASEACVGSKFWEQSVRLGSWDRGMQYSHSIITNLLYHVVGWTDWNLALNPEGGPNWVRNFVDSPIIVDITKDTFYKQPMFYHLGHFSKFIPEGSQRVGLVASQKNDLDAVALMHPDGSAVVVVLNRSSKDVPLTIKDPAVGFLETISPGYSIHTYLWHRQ

SMILES | Ki [1, 2] [µM] | IC50 [1, 3] [µM] | Ki [1, 4] [µM] | Ki [1, 5] [µM] | Ki [1, 6] [µM] | IC50 [1, 7] [µM] | Vd (Rat pharmacokinetics; IV, 3 mg/kg free base) [L/kg] | clearance (Rat pharmacokinetics; IV, 3 mg/kg free base) [mL/min/kg] | AUC(0-t) (Rat pharmacokinetics; [8]) [ng·h/mL] | Cmax (Rat pharmacokinetics; IV, 3 mg/kg free base) [ng/mL] | half-life (Rat pharmacokinetics; [9]) [h] | bioavailability (Rat pharmacokinetics; [10]) [%] | Cmax (Rat pharmacokinetics; PO, 10 mg/kg free base) [ng/mL] | half-life (Rat pharmacokinetics; [11]) [h] | AUC(0-t) (Rat pharmacokinetics; [12]) [ng·h/mL] | bioavailability (Rat pharmacokinetics; [13]) [%] | Cmax (Rat pharmacokinetics; PO, 30 mg/kg free base) [ng/mL] | half-life (Rat pharmacokinetics; [14]) [h] | AUC(0-t) (Rat pharmacokinetics; [15]) [ng·h/mL] | bioavailability (Rat pharmacokinetics; [16]) [%] | other results
O[C@@H]1[C@@H](Cc2ccccc2)CNC[C@H]1O [(3R,4R,5S)-5-benzyl-piperidine-3,4-diol] | 0.273 ± 0.012 | 0.659 ± 0.028 | 0.273 ± 0.012 | 0.273 ± 0.012 | 0.067 ± 0.005 | 0.127 ± 0.01 | 12.6 ± 1.79 | 85.8 | 592 ± 60.9 | 969 ± 104 | 1.7 ± 1.5 | 61.7 ± 2.4 | 641 ± 48.7 | 3.86 ± 0.6 | 3690 ± 71.5 | 62.3 ± 1.2 | 1700 ± 133 | 3.8 ± 0.19 | 13500 ± 2180 | 68.3 ± 10.8 | AUC(0-t) (Rat pharmacokinetics; PO, 10 mg/kg free base, AUC0-24 hr, read-out: AUClast (hr*ng/ml), AUC0-24 hr): 1200 ± 46.4 ng·h/mL; Cmax (Rat pharmacokinetics; PO, 100 mg/kg free base): 7140 ± 1360 ng/mL; half-life (Rat pharmacokinetics; [17]): 2.9 ± 0.11 h; half-life (Rat pharmacokinetics; [18]): 1 to 4 h; bioavailability (Rat pharmacokinetics; [19]): 50 to 100%
Cl.O[C@H]1[C@H](O)CNC[C@@H]1C(F)F [Cmpd 6, (3R,4R,5S)-5-(Difluoromethyl)piperidine 3,4-diol Hydrochloride] | – | – | – | – | – | – | 2.61 | 25.9 | 2040 | 2320 | 1.1 | 106 | 3360 | 2.58 | 21700 | 101 | 10000 | 2.75 | 79400 | 121 | AUC(0-t) (Rat pharmacokinetics; PO, 10 mg/kg free base, AUC0-12 hr, read-out: AUClast (hr*ng/ml), AUC0-12 hr): 6710 ng·h/mL; Cmax (Rat pharmacokinetics; PO, 100 mg/kg free base): 33200 ng/mL; half-life (Rat pharmacokinetics; [17]): 2.41 h; half-life (Rat pharmacokinetics; [18]): 1 to 4 h; bioavailability (Rat pharmacokinetics; [19]): 50 to 100%
CC[C@@H](F)[C@H]1CNC[C@@H](O)[C@@H]1O.Cl [(3R,4R,5S)-5-((R)-1-fluoropropyl)-piperidine-3,4-diol hydrochloride] | 0.121 ± 0.0026 | 0.291 ± 0.006 | 0.121 ± 0.0026 | 0.121 ± 0.0026 | 0.031 ± 0.0015 | 0.06 ± 0.0029 | – | – | – | – | – | – | – | – | – | – | – | – | – | – | –
